In patent publication US20100105688A1, “PHARMACEUTICAL COMPOSITIONS COMPRISING 3,5-DIAMINO-6-(2,3-DICHLOPHENYL)-1,2,4-TRIAZINE OR R(-)-2,4-DIAMINO-5-(2,3-DICHLOROPHENYL)-6-FLUOROMETHYL PYRIMIDINE AND AN NK1” (GLAXO GROUP LIMITED, priority 2007, published 2010):
Like-named read-outs stand apart in the source and are kept apart here. Values belong to the molecule of their own block, whether it stands above or below them.

Tests used:
[1] = Blood and brain concentrations in satellite animals of the MEST study; type: in vivo, rat; conditions: satellite rats; for change of blood or brain concentration of the sodium channel blocker in the presence of ENK6: ENK6 30 mg/kg i.p.; for concentration at 15 min / concentration at 30 min: rat, sc
Experimental: Satellite animals (n=3/group) received the same drugs or combinations of drugs as the test groups, and were culled at the appropriate time after dosing. Blood and brain samples were taken for analysis of the drug concentrations in these compartments.
(§1) All doses were calculated as base. ENa9 and ENa13 were dosed via the subcutaneous (s.c.) route at 1 ml/kg in a 2% v/v DMSO/saline vehicle 30 minutes prior to test. ENa7 and ENa14 were dosed orally (p.o.) in a 1% w/v methylcellulose/water vehicle at 2 ml/kg, 60 minutes before test. Compound ENK6 was dosed with via the intraperitoneal (i.p.) route 60 minutes before the test or via the s.c. route 15 minutes before test. In both cases ENK6 was dissolved in saline.

[2] = system: Male CD rats; experiment: Rat MEST model (seizure threshold, CC50); type: in vivo
Experimental: This work was conducted in compliance with the Home Office Guidance on the operation of the Animals (Scientific Procedures) Act 1986 and GlaxoSmithKline ethical standards. Male CD rats (100-145 g) were supplied by Charles River, UK. Animals were group housed (6 animal per cage) with free access to food (Standard rodent chow; Harlan, UK) and water under a 12 h light/dark cycle (lights on at 0700 h). A period of at least one week between arrival at GSK and the study was allowed in all cases.
Animals were administered a test compound at the appropriate dose, route and pre-treatment time and returned to their home cage. Testing occurred in a separate room from that used for housing. Testing involved determining the threshold for tonic hindlimb extensor seizures using a Hugo Sachs Electronik stimulator which delivers a constant current of 0.3 second duration, 50 Hz, sinewave form, fully adjustable between 1 and 300 mA. Stimuli were delivered via corneal electrodes (Stean T O, Atkins A R, Heidbreder C A, Quinn L P, Trail B K, Upton N. (2005) Br J. Pharmacol. 144(5):628-35). Seizure threshold was determined using the ‘up and down’ method of Kimball et al. (1957)(Kimball A W, Burnett W T Jr, Doherty D G. (1957) Radiat Res. 7(1):1-12). The first animal tested in each group was stimulated with a current that might be expected to be close to the threshold for induction of a seizure. If a tonic seizure was not induced, then next animal in the group received a stimulus 5 mA higher. If a tonic seizure was induced, then the next animal received a stimulus 5 mA lower. This is repeated for all animals within the control (vehicle) group. In the case of groups treated with a sodium channel blocker steps of 10 to 30 mA were used.
as §1
Induction of seizure is measured as an all-or-nothing effect scored as either present (+) or absent (0) for each animal. The data for each treatment group were recorded as the number of +'s and 0's at each current level employed and this information was then used to calculate the CC50 value (current required for 50% of animals to show seizure behaviour)+standard error of the mean according to the method of Kimball et al. (1957). Drug effects were calculated as the % change in CC50. Significant differences between drug-treated animals and appropriate vehicle treated groups were assessed according to the methods of Litchfield and Wilcoxon (1949). The statistical significance of differences between sodium channel blocker alone or in combination with ENK6 was assessed using a Student's t test.

[3] = system: rats; experiment: FCA (Freunds Complete Adjuvant) model of inflammatory hypersensitivity to pain (weight bearing); type: in vivo, rat
Experimental: • Naïve weight bearing readings were taken. The hypersensitivity to pain was measured using the Rat incapacitance tester (Linton instruments). This instrument is serviced once a year and should be regularly calibrated • All rats then received an intraplantar injection of 100 ul of FCA (Freund's complete adjuvant) into the left hind paw. The FCA was sonicated for 15 minutes prior to use. • Approximately 23 hrs after administration of the FCA, pre-dose weight bearing readings were taken. All animals were then ranked and randomised for dosing according to their FCA window (predose difference in grams−naïve difference in grams). […] Celebrex 10 mg/kg p.o. (positive control) as appropriate according to ranking and randomisation. • Animals were assessed in the weight bearing apparatus 1 hour post dose. • The study was blind and randomised by FCA window using the Latin square method. • % reversals were calculated by using the naïve, pre-dose and post dose values as follows: % Reversal=[(Pre-dose−Post-dose)/(Pre-dose−Naïve)]×100 • Graphs and ED50 were calculated where appropriate using Prism4. • Statistical analysis was carried out using ANOVA followed by calculating the least square means using the statistical package Statistica 6.1 • From the dose response curves the ED20 was determined for the combination study • Naïve weight bearing readings were taken. The hypersensitivity to pain was measured using the Rat incapacitance tester (Linton instruments). This instrument is serviced once a year and should be regularly calibrated • All rats then received an intraplantar injection of 100 ul of FCA (Freund's complete adjuvant) into the left hind paw. The FCA was sonicated for 15 minutes prior to use. • Approximately 23 hrs after administration of the FCA, pre-dose weight bearing readings were taken. All animals were then ranked and randomised for dosing according to their FCA window (predose difference in grams−naïve difference in grams). […] See table 5 for details of the groups • Animals were assessed in the weight bearing apparatus 1 hour post dose. • The study was blind and randomised by FCA window using the Latin square method. • % reversals were calculated by using the naïve, pre-dose and post dose values as follows: % Reversal=[(Pre-dose−Post-dose)/(Pre-dose−Naïve)]×100 • Statistical analysis was carried out using ANOVA followed by calculating the least square means using the statistical package Statistica 6.1 • ED50 and ED20 values and graphs were calculated using prism5 • Naïve weight bearing readings were taken. The hypersensitivity to pain was measured using the Rat incapacitance tester (Linton instruments). This instrument is serviced once a year and should be regularly calibrated • All rats then received an intraplantar injection of 100 ul of FCA (Freund's complete adjuvant) into the left hind paw. The FCA was sonicated for 15 minutes prior to use. • Approximately 23 hrs after administration of the FCA, pre-dose weight bearing readings were taken. All animals were then ranked and randomised for dosing according to their FCA window (predose difference in grams—naïve difference in grams). Rats with FCA window less than 30 g were excluded from the study. • Animals were then dosed with the following in a fixed dose ratio of 1.25:1 according to ranking and randomisation. (Table 6) […] Graphs and ED50 were calculated where appropriate using Prism5 • Statistical analysis was carried out using ANOVA followed by calculating the least square means using the statistical package Statistica 6.1

[4] = sodium channel blocker 1 mg/kg s.c. in the presence of ENK6 (30 mg/kg i.p.)
[5] = sodium channel blocker 3 mg/kg s.c. in the presence of ENK6 (30 mg/kg i.p.)
[6] = sodium channel blocker alone, 1 mg/kg s.c., 30 minutes prior to test
[7] = sodium channel blocker alone, 3 mg/kg s.c., 30 minutes prior to test
[8] = ENK6 10 mg/kg s.c. + ENa7 1 mg/kg p.o., n = 2-3
[9] = ENK6 10 mg/kg s.c. + ENa7 3 mg/kg p.o., n = 2-3
[10] = ENK6 30 mg/kg s.c. + ENa7 1 mg/kg p.o., n = 2
[11] = ENK6 30 mg/kg s.c. + ENa7 3 mg/kg p.o., n = 2
[12] = ENK6 30 mg/kg i.p. + ENa13 1 mg/kg s.c., n = 2
[13] = ENK6 30 mg/kg i.p. + ENa13 3 mg/kg s.c., n = 2

change of blood or brain concentration of the sodium channel blocker in the presence of ENK6 [1]: No increase
Compound: Cl.NC(=O)[C@@H]1CC[C@H](c2ccc(OCc3ccccc3F)cc2)N1 [ENa9, (5R)-5-(4-{[(2-fluorophenyl)methyl]oxy}phenyl)-L-prolinamide hydrochloride]
increase in CC50 (mA) [2, 4]: 133% | increase in CC50 (mA) [2, 5]: 323% | effect on seizure threshold [2, 6]: inactive | effect on seizure threshold [2, 7]: small, but significant increase in seizure threshold

concentration at 15 min ([1]; blood, 10 mg/kg, ENK6 10 mg/kg s.c. + ENa7 veh, n = 2-3, read-out: Blood concentration): 839 ng/mL | concentration at 15 min ([1]; blood, 30 mg/kg, ENK6 30 mg/kg s.c. + ENa7 veh, n = 2, read-out: Blood concentration): 1890 ng/mL | concentration at 15 min ([1]; brain, 10 mg/kg, ENK6 10 mg/kg s.c. + ENa7 veh, n = 2-3, read-out: Brain concentration): 1420 ng/g | concentration at 15 min ([1]; brain, 30 mg/kg, ENK6 30 mg/kg s.c. + ENa7 veh, n = 2, read-out: Brain concentration): 4500 ng/g | Blood concentration [1, 8]: 635 ng/mL | Brain concentration [1, 8]: 1254 ng/g | Blood concentration [1, 9]: 732 ng/mL | Brain concentration [1, 9]: 1504 ng/g | Blood concentration [1, 10]: 1542 ng/mL | Brain concentration [1, 10]: 3343 ng/g | Blood concentration [1, 11]: 1481 ng/mL | Brain concentration [1, 11]: 2484 ng/g
Compound: COc1ccc(-n2nnnc2C(F)(F)F)cc1CN[C@H]1CCCN[C@H]1c1ccccc1.Cl.Cl [ENK6, [2-Methoxy-5-(5-trifluoromethyl-tetrazol-1-yl)-benzyl]-([2S,3S]-2-phenyl-piperidin-3-yl)-amine dihydrochloride]
ED50 ([3]; Rattus norvegicus, po, compound alone, 0.1-3.0 mg/kg p.o. as printed, 1 hour post dose, range in brackets as printed, read-out: ED50, reversal of the FCA induced hypersensitivity): 0.4 mg/kg | reversal of the FCA induced hypersensitivity ([3]; compound alone, 0.1-3.0 mg/kg, 1 hour post dose): dose related reversal | ED20, reversal of the FCA induced hypersensitivity ([3]; compound alone, p.o. as printed, from the dose response curve): 0.08 mg/kg | ED20, reversal of the FCA induced hypersensitivity ([3]; compound alone, s.c. (summary of results)): approx 0.08 mg/kg | effect on the FCA induced hypersensitivity ([3]; each compound alone at its ED20 dose (ENa7 0.1 mg/kg p.o.; ENK6 0.08 mg/kg s.c.)): no significant effect | effect on seizure threshold ([2]; ENK6 alone, 10 mg/kg s.c., 15 minutes before testing (first experiment)): no effect on seizure threshold | effect on seizure threshold ([2]; ENK6 alone, 30 mg/kg i.p., 60 minutes before the test): no effect on seizure threshold | effect on seizure threshold ([2]; ENK6 alone, 30 mg/kg s.c., 15 minutes before testing): no effect on seizure threshold

Compound: Nc1nc(N)c(-c2cccc(Cl)c2Cl)c(CF)n1 [ENa15, R(−)-2,4-diamino-5-(2,3-dichlorophenyl)-6-fluoromethyl pyrimidine methanesulphonate]
increase in CC50 (mA) ([2]; sodium channel blocker 0.3 mg/kg p.o. in the presence of ENK6 30 mg/kg s.c.): 176% | increase in CC50 (mA) ([2]; sodium channel blocker 1 mg/kg p.o. in the presence of ENK6 30 mg/kg s.c.): 51% | effect on seizure threshold ([2]; sodium channel blocker alone, 0.3 mg/kg p.o., 60 minutes before the test): no increase in seizure threshold | increase in seizure threshold ([2]; sodium channel blocker alone, 1 mg/kg p.o., 60 minutes before the test): 292%

concentration at 30 min ([1]; blood, 1 mg/kg, ENK6 veh + ENa13 1 mg/kg s.c., n = 2, read-out: Blood concentration): 499 ng/mL | concentration at 30 min ([1]; blood, 3 mg/kg, ENK6 veh + ENa13 3 mg/kg s.c., n = 2, read-out: Blood concentration): 1820 ng/mL | concentration at 30 min ([1]; brain, 1 mg/kg, ENK6 veh + ENa13 1 mg/kg s.c., n = 2, read-out: Brain concentration): 478 ng/g | concentration at 30 min ([1]; brain, 3 mg/kg, ENK6 veh + ENa13 3 mg/kg s.c., n = 2, read-out: Brain concentration): 1820 ng/g | change of blood or brain concentration of the sodium channel blocker in the presence of ENK6 [1]: No increase | Blood concentration [1, 12]: 416 ng/mL | Brain concentration [1, 12]: 508 ng/g | Blood concentration [1, 13]: 1160 ng/mL | Brain concentration [1, 13]: 1235 ng/g
Compound: CN1CC[C@]2(CC[C@H](c3ccc(OCc4ccccc4F)cc3)N2)C1=O.Cl [ENa13, (2R,5R)-2-(4-{[(2-Fluorophenyl)methyl]oxy}phenyl)-7-methyl-1,7-diazaspiro[4.4]nonan-6-one hydrochloride]
increase in CC50 (mA) [2, 4]: 118% | increase in CC50 (mA) [2, 5]: 129% | effect on seizure threshold [2, 6]: inactive | effect on seizure threshold [2, 7]: robust and significant increase in seizure threshold
